Here are results for 18 compounds from article PMC6522510 (Nature Communications, 2019).

Among the test systems are CMS; U937; MOLM-13; M07e; ML-2; CHRF288-11; MV4-11; CMK.
What all share (parameters): species or system AML cell lines (8); Primary HTS, single concentration about 10 uM, Cell Titer Glo viability; log10 luminescence, per cent inhibition relative to cycloheximide control
What all share (conditions): 72 h, relative to cycloheximide control, log10 luminescence; inhibitor

Counter-ions that a name gives are not always drawn.

Consider `CC(C)(S)[C@@H](N)C(=O)O` [SJ000285530-3, PENICILLAMINE], for which the CMS %inh with CMS was 1.349%. In addition, the U937 %inh with U937 was -1.029%. Also, the MOLM-13 %inh in the assay with MOLM-13 was 4.905%. Further, in the assay on M07e, the M07e %inh was 4.147%. The ML-2 %inh in the assay with ML-2 came to 0.1436%. Also, in the assay with CHRF288-11, the CHRF288-11 %inh turned out to be 1.093%. Also, in the assay on MV4-11, the MV4-11 %inh amounted to 0.7087%. Also, the CMK %inh with CMK is -2.957%.

Regarding `N=C(N)NCCN1CCCCCCC1` [SJ000285779-4, GUANETHIDINE SULFATE], the CMS %inh with CMS is -3.451%. The U937 %inh in the assay on U937 is on record as -2.581%. The MOLM-13 %inh in the assay with MOLM-13 is reported as -0.2658%. Also, the M07e %inh in the assay with M07e came out at 0.2704%. In addition, the ML-2 %inh in the assay on ML-2 came to 1.503%. Besides, in the assay on CHRF288-11, the CHRF288-11 %inh is -6.834%. In the assay on MV4-11, the MV4-11 %inh is -2.801%. Further, the CMK %inh in the assay with CMK was -2.691%.

Take `Cc1cccc(-c2n[nH]cc2-c2ccc3ncccc3n2)n1` [SJ000573293-1, FFJG/252/112/1 | REPSOX]: in the assay with CMS, the CMS %inh is listed as 2.179%. The U937 %inh in the assay on U937 is on record as 6.099%. In the assay with MOLM-13, the MOLM-13 %inh is -2.402%. Moreover, the M07e %inh with M07e is recorded as -1.053%. Also, the ML-2 %inh in the assay with ML-2 worked out at 2.229%. Moreover, the CHRF288-11 %inh with CHRF288-11 is given as 4.75%. Besides, the MV4-11 %inh in the assay on MV4-11 came to 1.439%. In addition, the CMK %inh in the assay on CMK amounted to 1.842%.

Turning to `CC(C)(O)CCc1cccc(C(=O)c2cnn(-c3ccc(F)cc3)c2N)c1` [SJ000581047-1], the CMS %inh in the assay on CMS is given as 5.394%. Besides, in the assay with U937, the U937 %inh is -2.635%. The MOLM-13 %inh with MOLM-13 is -1.69%. The M07e %inh with M07e was 3.158%. The ML-2 %inh in the assay with ML-2 turned out to be 1.278%. In the assay with CHRF288-11, the CHRF288-11 %inh was determined as 1.391%. Further, in the assay on MV4-11, the MV4-11 %inh is listed as -0.34%. In the assay with CMK, the CMK %inh is listed as -5.065%.

Consider `Cn1cc(C2=C(N3CCOCC3)C(=O)NC2=O)c2ccccc21` [SJ000581016-1], for which, in the assay with CMS, the CMS %inh came to 2.558%. For the same compound, the U937 %inh in the assay with U937 was -0.03629%. Further, in the assay on MOLM-13, the MOLM-13 %inh is reported as -0.4077%. Further, the M07e %inh with M07e was -1.546%. Besides, the ML-2 %inh in the assay with ML-2 stood at 1.058%. Further, the CHRF288-11 %inh in the assay with CHRF288-11 is listed as -0.4853%. Further, the MV4-11 %inh in the assay with MV4-11 was -3.16%. Also, the CMK %inh in the assay with CMK is -3.99%.

Regarding `Cn1cc(C2=C(c3cccc([N+](=O)[O-])c3)C(=O)NC2=O)c2ccccc21` [SJ000581137-1], the CMS %inh in the assay with CMS turned out to be 50.99%. Besides, the U937 %inh in the assay on U937 is reported as -0.4034%. Further, in the assay on MOLM-13, the MOLM-13 %inh came to 11.77%. Further, in the assay on M07e, the M07e %inh was 11.35%. Also, in the assay with ML-2, the ML-2 %inh turned out to be 13.53%. In addition, in the assay on CHRF288-11, the CHRF288-11 %inh is listed as 36.65%. In addition, the MV4-11 %inh with MV4-11 worked out at 20.06%. Further, in the assay with CMK, the CMK %inh was determined as 90.94%.

Regarding `CCCCC1=NC2(CCCC2)C(=O)N1Cc1ccc(-c2ccccc2-c2nnn[nH]2)cc1` [SJ000286674-2, IRBESARTAN], the CMS %inh in the assay with CMS is -2.028%. In addition, the U937 %inh in the assay with U937 is -0.5514%. Moreover, the MOLM-13 %inh in the assay with MOLM-13 came out at 17.32%. For the same compound, the M07e %inh in the assay on M07e is given as 0.4149%. The ML-2 %inh in the assay with ML-2 is 1.25%. In addition, the CHRF288-11 %inh in the assay with CHRF288-11 is given as 1.638%. In addition, the MV4-11 %inh with MV4-11 is given as 1.017%. The CMK %inh in the assay with CMK came out at 0.3545%.

Take `Nc1[nH]nc2nc(-c3cccs3)cc(C(F)(F)F)c12` [SJ000581105-1]: the CMS %inh in the assay with CMS is recorded as 2.722%. For the same compound, in the assay with U937, the U937 %inh is on record as 0.05414%. Besides, in the assay with MOLM-13, the MOLM-13 %inh turned out to be 17.65%. Moreover, the M07e %inh in the assay with M07e was 8.033%. The ML-2 %inh with ML-2 is 1.699%. In the assay on CHRF288-11, the CHRF288-11 %inh is -1.43%. For the same compound, in the assay with MV4-11, the MV4-11 %inh worked out at 7.712%. In addition, the CMK %inh in the assay on CMK is recorded as -1.06%.

Turning to `CCCCCCCCCCCCCCSCC(=O)O` [SJ000288209-4, TETRADECYLTHIOACETIC ACID], in the assay with CMS, the CMS %inh is given as -0.2083%. Also, the U937 %inh in the assay on U937 is -2.154%. In addition, the MOLM-13 %inh in the assay on MOLM-13 is -1.133%. The M07e %inh in the assay on M07e is 1.198%. In addition, the ML-2 %inh with ML-2 is reported as -0.6377%. Also, in the assay with CHRF288-11, the CHRF288-11 %inh is -0.5942%. Moreover, the MV4-11 %inh with MV4-11 is on record as -0.2387%. The CMK %inh with CMK is -1.764%.

In the case of `COC(=O)C1=C(C)NC(C)=C(C(=O)OC(C)C)C1c1cccc2nonc12` (stereo not drawn) [SJ000287510-2, ISRADIPINE], the CMS %inh in the assay with CMS is on record as -2.562%. Moreover, the U937 %inh in the assay on U937 was found to be 3.366%. The MOLM-13 %inh with MOLM-13 worked out at 6.188%. Further, the M07e %inh with M07e came to 0.2973%. Moreover, the ML-2 %inh with ML-2 was -1.199%. Further, the CHRF288-11 %inh in the assay with CHRF288-11 is given as 8.592%. Further, the MV4-11 %inh with MV4-11 amounted to 2.426%. In the assay with CMK, the CMK %inh was -2.127%.

As to `CCN(CC)Cc1ccc(Nc2nccc(-c3cnn4ncccc34)n2)cc1` [SJ000573341-1, U20497/10/4], in the assay on CMS, the CMS %inh is reported as 102.8%. Further, in the assay on U937, the U937 %inh worked out at 77.76%. For the same compound, in the assay with MOLM-13, the MOLM-13 %inh is on record as 89.9%. For the same compound, in the assay with M07e, the M07e %inh came out at 122.1%. For the same compound, the ML-2 %inh with ML-2 is 56.99%. In addition, in the assay on CHRF288-11, the CHRF288-11 %inh is 61.01%. Moreover, the MV4-11 %inh in the assay on MV4-11 was 77.95%. The CMK %inh in the assay with CMK came out at 90.23%.

`CCCCC1C(=O)N(c2ccccc2)N(c2ccc(O)cc2)C1=O` (stereo not drawn) [SJ000285591-4, OXYPHENBUTAZONE]: the CMS %inh with CMS amounted to 98.27%. Besides, the U937 %inh in the assay on U937 stood at 81.76%. For the same compound, the MOLM-13 %inh in the assay on MOLM-13 is given as -3.833%. For the same compound, the M07e %inh in the assay on M07e is reported as 119.6%. Also, in the assay on ML-2, the ML-2 %inh was determined as 63.81%. Further, the CHRF288-11 %inh in the assay on CHRF288-11 is recorded as -1.743%. In the assay on MV4-11, the MV4-11 %inh was 79.54%. Besides, in the assay with CMK, the CMK %inh is recorded as -9.457%.

Take `COc1cc2ncn(-c3cc(OCc4ccccc4C(F)(F)F)c(C(N)=O)s3)c2cc1OC` [SJ000573017-1, U19479/72/1]: in the assay with CMS, the CMS %inh is recorded as 10.85%. Also, in the assay on U937, the U937 %inh amounted to 52.87%. In addition, the MOLM-13 %inh in the assay with MOLM-13 was found to be 75.9%. For the same compound, in the assay with M07e, the M07e %inh came out at 75.37%. Also, the ML-2 %inh in the assay on ML-2 came out at 50.35%. Besides, in the assay with CHRF288-11, the CHRF288-11 %inh was determined as 5.686%. Also, the MV4-11 %inh with MV4-11 is given as 11.51%. The CMK %inh in the assay with CMK is 61.69%.

As for `CN1CCC(n2cnc(-c3ccc(F)cc3)c2-c2ccnc(Nc3ccccc3)n2)CC1` [SJ000573236-1, TG19207-284A1], the CMS %inh with CMS stood at 10.11%. Moreover, the U937 %inh in the assay on U937 was determined as 6.434%. The MOLM-13 %inh in the assay on MOLM-13 is 50.36%. Moreover, the M07e %inh in the assay on M07e was determined as 7.373%. The ML-2 %inh with ML-2 is on record as 9.737%. Moreover, the CHRF288-11 %inh in the assay with CHRF288-11 was found to be 30.13%. In the assay with MV4-11, the MV4-11 %inh was found to be 26.4%. Further, the CMK %inh in the assay on CMK is given as 43.62%.

In the case of `COc1ccc(CCN=C2NC(=O)/C(=C/c3ccc4ncccc4c3)S2)cc1` [SJ000580998-1], in the assay on CMS, the CMS %inh is -0.7764%. For the same compound, in the assay on U937, the U937 %inh worked out at 0.5801%. Further, the MOLM-13 %inh with MOLM-13 is listed as 2.923%. For the same compound, the M07e %inh in the assay with M07e worked out at 1.057%. Also, in the assay on ML-2, the ML-2 %inh is recorded as -1.934%. Moreover, the CHRF288-11 %inh with CHRF288-11 is -1.93%. Besides, the MV4-11 %inh in the assay on MV4-11 is reported as -1.039%. Moreover, the CMK %inh in the assay on CMK was -3.047%.

`Nc1c(C(=O)c2cccc(-c3cccnc3)c2)cnn1-c1ccc(F)cc1` [SJ000581038-1]: in the assay with CMS, the CMS %inh stood at 0.2916%. The U937 %inh with U937 came out at 0.8257%. The MOLM-13 %inh in the assay on MOLM-13 came to 1.631%. In addition, the M07e %inh in the assay with M07e came out at 5.379%. For the same compound, the ML-2 %inh in the assay on ML-2 is on record as 2.13%. Moreover, the CHRF288-11 %inh in the assay on CHRF288-11 is -0.1911%. Besides, the MV4-11 %inh in the assay with MV4-11 was 1.728%. The CMK %inh with CMK was -3.194%.

With `COC(=O)Nc1nc2cc(Oc3ccc(NC(=O)Nc4ccccc4)cc3)ccc2[nH]1` [SJ000573165-1, T261/64/2], in the assay on CMS, the CMS %inh is 99.63%. Moreover, in the assay on U937, the U937 %inh worked out at 81.37%. Moreover, in the assay on MOLM-13, the MOLM-13 %inh is on record as 87.75%. The M07e %inh with M07e amounted to 91.37%. In addition, the ML-2 %inh in the assay on ML-2 was 57.46%. In addition, the CHRF288-11 %inh in the assay with CHRF288-11 is given as 29.47%. The MV4-11 %inh in the assay on MV4-11 was 69.12%. In the assay on CMK, the CMK %inh worked out at 109.7%.

As for `Cc1cn([C@@H]2C[C@@H](O)[C@H](CO)O2)c(=O)[nH]c1=O` [SJ000556735-1, TELBIVUDINE], the CMS %inh in the assay with CMS is recorded as -2.406%. Further, the U937 %inh with U937 came to 2.103%. Besides, the MOLM-13 %inh with MOLM-13 is given as -1.046%. Further, in the assay with M07e, the M07e %inh is recorded as 0.6931%. Besides, in the assay with ML-2, the ML-2 %inh turned out to be 2.339%. Besides, the CHRF288-11 %inh in the assay with CHRF288-11 is 5.146%. Further, the MV4-11 %inh in the assay with MV4-11 stood at 3.878%. In the assay on CMK, the CMK %inh is listed as -3.078%.
